# Laboratory results: patent US12697366B2, “Thermogenic compositions and methods” (Ohio State Innovation Foundation, priority 2016, dated 2026)
# Assays:
# PPARα-LBD = PPARα-LBD luciferase reporter in transiently transfected HEK293 cells; format: cell-based, human; details: EREG, 12 hrs
# Description: FIGS. 11A to 11I show adipokine Ereg is bilaterally associated with obesity and thermogenesis and activates PPARα. […] Microarray gene analysis was performed using Affymetrix microarray. FIG. 11B: Ereg expression was measured in non-differentiated and differentiated (day 5) 3T3-L1 adipocytes (Mann-Whitney test) using a customized NanoString mouse panel. FIG. 11C: Ereg expression was measured in differentiated (day 5) 3T3-L1 and Aldh1a1^−/− adipocytes by Taqman and normalized to TATA box protein (TBP). FIG. 11D: Plasma EREG concentrations were measured in mice from Study 1 by western blot. […] FIG. 11E: Plasma EREG concentrations were measured and quantified in iAb of WT and ob/ob mice from Study 2 by western blot (n=5 per each group). […] FIG. 11F: EREG was measured in iAb, subcutaneous and brown fat by western blot. Fat pads were dissected from WT mice on regular chow (Study 1). FIG. 11G: Ucp2 and Ucp1 expression was measured in differentiated 3T3-L1 adipocytes (day 5) stimulated with vehicle (PBS) or recombinant EREG (50 ng/mL) added in the differentiation medium I and II. Expression level were measured by Taqman and normalized by TBP. FIGS. 11H and 11I: HEK293 cells were transiently transfected with PPARα-LBD, UASTK-luciferase, and renilla. […] Data represents % PPARα-LBD activation. Asterisks indicate significant difference (p<0.05) compared to vehicle control, #, indicates statistical difference between PPARα-LBD activation by EREG alone and in the presence of inhibitors. Data represent mean±SD. The Mann-Whitney test was used throughout these studies for group comparison.
# HEK293 cells ([…] cells, 24-well plates) were used for transient transfection experiments. Cells were transfected with human PPARα-LBD construct, yeast UASTK luciferase reporter (SwitchGear Genomics, Menlo Park, CA), using Fugene (Roche Applied Science, Indianapolis, IN). Transfections were carried out in OptiMeM (Invitrogen, Carlsbad, CA) medium for 12 hours as described previously. Luciferase was measured using Promega assay according to manufacturer's instructions
# [1] = system: omental iAb preadipocytes; assay: FD-glucose uptake in human omental iAb preadipocytes; format: cell-based; details: for glucose uptake in preadipocytes from lean insulin-sensitive patients: EREG vs insulin; for glucose uptake in preadipocytes from an insulin resistant patient: different doses of EREG, insulin 10 μg/ml
# Description: FIGS. 16A to 16M show EREG improves glucose uptake in ob/ob mice and in mouse and human preadipocytes. FIG. 16A: GTT was performed on fasting Veh (open circles) and EREG-treated (closed circles) ob/ob (N=5/group, Study 4) mice (12 hrs) using a single 25% dextrose injection (0.004 mL/g body weight). Asterisks indicate significant differences between Veh- and EREG-treated groups. FIG. 16B: ITT was performed in the same mice groups. […]: Fluorescently-labelled (FD) glucose uptake was measured in mouse […] preadipocytes. FIG. 16C: Preadipocytes were treated with vehicle, insulin (ins), EREG and forskolin for 30 mins. […] Asterisks represent significant differences compared to vehicle (P<0.05). FIG. 16D: Dose dependent increase in FD-glucose uptake by 3T3-L1 preadipocytes stimulated with different EREG concentrations. Data are shown as a percent of Veh-treated control. FIGS. 16E to 16G: FD-glucose uptake was measured in omental iAb preadipocytes isolated from lean (FIG. 16E) and obese insulin-resistant (FIG. 16F, 16G) patients in the presence of insulin, EREG, and forskolin. […] Omental preadipocytes from obese insulin resistant […] (FIG. 16G) and […] (FIG. 16K) were also stimulated with and without EREG in presence and absence of EGFR and MAPK inhibitors for 30 mins. Data were calculated as a percent to non-stimulated control (Veh, 100%, dash line) and shown as a mean±SD. Asterisks represent significant differences compared to vehicle (P<0.05), Mann-Whitney U test. FIG. 16H: FD-glucose uptake was measured in mouse 3T3-L1 preadipocytes with or without EREG (50 ng/mL) and inhibitors of MAPK and PI3K (MAPK-I, 10 uM, and PI3K-I, 200 nM). Data (mean±SD) are shown as percent to control (Veh 100%). […] P<0.05 indicate significant differences between EREG-treated and PI3K-I/EREG treated groups. Asterisks indicate significant differences between vehicle control and treatments with inhibitors. FIG. 16I: Phosphorylated (p-Akt) and non-phosphorylated (total) Akt protein levels were measured in mouse 3T3-L1 preadipocytes stimulated with or without EREG (50 ng/ml), PI3K-I (200 nM) for 20 mins by western blot and quantified by ImageJ Software. […] Asterisks represent significant differences compared to vehicle (P<0.05). FIG. 16J: Plasma insulin levels in fasting Veh and EREG-treated ob/ob mice measured by ELISA. FIG. 16L: Phosphorylated Akt protein levels were measured by western blot in human preadipocytes from an obese person stimulated with or without EREG (50 ng/ml) and PI3K-I (200 nM) for 20 mins. […] Asterisks represent significant differences compared to vehicle (P<0.05). Mann-Whitney U test. FIG. 16M: Schematic depicting two different pathways involved in EREG-mediated induction of thermogenesis and glucose uptake. EREG acts via MAPK to induce leptin secretion and also stimulates hormone sensitive lipase (HSL). HSL hydrolyzes free fatty acids activating PPARα activation. EGF, EGFR inhibition, or MAPK inhibition streamlines EREG-dependent PI3K/Akt activation that increase glucose uptake.
# Human stromal vascular fraction (SVF) was isolated from iAb (omental) fat of lean and obese men and women as described before and maintained in preadipocyte culture media (Lonza, Allendale, NJ). Differentiation was carried out for 9-10 days using preadipocyte culture media supplemented with insulin, dexamethasone, IBMX and indomethacin (Lonza, Allendale, NJ).
# Glucose uptake assay was performed using glucose uptake cell-based assay kit (Cayman Chemical, Ann Arbor, MI). 3T3-L1 or human preadipocytes were cultured at a density of 5×10^4 per well into a 96-well plate (n=7) in high glucose media and grown overnight. Old cell culture medium was removed the next day and washed with PBS to remove residual glucose. Supplied 2-deoxy-2-[(7-nitro-2,1,3-benzoxadiazol-4-yl)amino]-D-glucose) (2-NBDG) was diluted to 150 μg/mL in DMEM medium without glucose, phenol red, L-glutamine, sodium pyruvate, and HEPES (Life technologies, Grand Island, New York). […]
# [2] = insulin resistant patient, EREG with EGFR inhibitor, 30 mins
Substance,induction of PPARα (PPARα-LBD activation) (PPARα-LBD),glucose uptake in preadipocytes from lean insulin-sensitive patients [1],glucose uptake in preadipocytes from an insulin resistant patient [1],"glucose uptake with inhibition of EGFR, compared to insulin response (100%) [1, 2]","glucose uptake with inhibition of EGFR, compared to non-treated preadipocytes (100%) [1, 2]"
"EREG: Epiregulin, member of the epidermal growth factor family; recombinant mouse or human protein",dose dependent induction,induced similar glucose uptake,dose-dependent fashion,212%,268%
insulin: insulin (bovine or human),,induced similar glucose uptake,not significant,,
